Data on three molecules can be found in article PMC12780224 (Nature Communications, 2025).

One series has as its target T1, RdSqgA (Roseobacter denitrificans, UniProt Q167F5).
T1 sequence (Q167F5 1-366): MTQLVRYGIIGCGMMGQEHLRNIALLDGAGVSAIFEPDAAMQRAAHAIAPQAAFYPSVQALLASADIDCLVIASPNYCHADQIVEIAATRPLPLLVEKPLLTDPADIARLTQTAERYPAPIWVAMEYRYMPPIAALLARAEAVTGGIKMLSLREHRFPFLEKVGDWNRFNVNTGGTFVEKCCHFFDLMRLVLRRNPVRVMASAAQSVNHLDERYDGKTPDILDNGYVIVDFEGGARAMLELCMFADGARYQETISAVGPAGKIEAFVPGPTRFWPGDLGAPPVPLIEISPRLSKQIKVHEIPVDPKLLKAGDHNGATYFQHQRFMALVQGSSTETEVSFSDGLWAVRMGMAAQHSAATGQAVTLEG
The experiment in a line: LC-MS of SQ formation. The following applies: 200 mM NH4HCO3 pH 7.0, room temperature overnight. The format is biochemical.

A further series addresses T2, CtSqgA (Chaetoceros tenuissimus, UniProt A0AAD3HCU0).
T2 sequence (A0AAD3HCU0 1-457): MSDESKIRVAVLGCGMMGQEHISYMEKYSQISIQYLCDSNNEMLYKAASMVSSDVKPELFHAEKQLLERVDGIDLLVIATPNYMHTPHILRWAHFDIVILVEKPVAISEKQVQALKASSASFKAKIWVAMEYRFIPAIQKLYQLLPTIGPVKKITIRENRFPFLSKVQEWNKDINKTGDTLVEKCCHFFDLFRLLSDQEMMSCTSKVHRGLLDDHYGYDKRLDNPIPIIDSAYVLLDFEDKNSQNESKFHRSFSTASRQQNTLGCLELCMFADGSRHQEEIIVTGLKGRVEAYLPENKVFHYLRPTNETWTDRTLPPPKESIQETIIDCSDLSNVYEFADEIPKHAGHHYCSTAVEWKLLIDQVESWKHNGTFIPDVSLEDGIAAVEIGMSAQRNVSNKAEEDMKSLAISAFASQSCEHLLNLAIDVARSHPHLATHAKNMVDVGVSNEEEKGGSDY
The experiment in a line: sulfoquinovosidase activity assay. The following applies: details only in supplement. In kind it is biochemical.

The target of a further series is T3, PpSqgA (Porphyridium purpureum, UniProt A0A5J4YS60).
T3 sequence (A0A5J4YS60 1-369): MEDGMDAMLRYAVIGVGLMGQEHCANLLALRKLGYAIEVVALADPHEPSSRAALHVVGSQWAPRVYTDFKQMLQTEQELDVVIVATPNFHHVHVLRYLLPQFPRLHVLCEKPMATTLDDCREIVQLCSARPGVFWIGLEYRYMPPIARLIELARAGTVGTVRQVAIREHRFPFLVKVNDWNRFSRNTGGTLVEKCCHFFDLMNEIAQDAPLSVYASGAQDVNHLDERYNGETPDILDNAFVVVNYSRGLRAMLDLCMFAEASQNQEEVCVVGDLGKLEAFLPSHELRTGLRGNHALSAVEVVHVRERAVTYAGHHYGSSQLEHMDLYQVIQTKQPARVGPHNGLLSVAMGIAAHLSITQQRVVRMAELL
The experiment in a line: sulfoquinovosidase activity assay. The following applies: details only in supplement. In kind it is biochemical.

Substrate in the series “purified protein”: O=[N+]([O-])c1ccc(O[C@H]2O[C@H](CS(=O)(=O)O)[C@@H](O)[C@H](O)[C@H]2O)cc1
The experiment in a line: purified protein. The settings on record: 10 mM phosphate buffer pH 7.5 (general assay buffer).

Regarding `NC(=O)c1ccc[n+]([C@@H]2O[C@H](COP(=O)(O)OP(=O)(O)OC[C@H]3O[C@@H](n4cnc5c(N)ncnc54)[C@H](O)[C@@H]3O)[C@@H](O)[C@H]2O)c1` [NAD^+], the “LC-MS of SQ formation” value on RdSqgA (20 uM SQGro) is “RdSqgA, revealed it to be an NAD^+-dependent sulfoquinovosidase”.

With `O=S(=O)(O)C[C@H]1O[C@H](OC[C@H](O)CO)[C@H](O)[C@@H](O)[C@@H]1O` [SQGro], the “sulfoquinovosidase activity assay (SQ release)” value is listed as “These homologs have sulfoquinovosidase activity, allowing the liberation of SQ” at CtSqgA and “These homologs have sulfoquinovosidase activity, allowing the liberation of SQ” at PpSqgA. Also, the “LC-MS of SQ formation” value on RdSqgA (10 mM NAD+) is listed as “NAD^+-dependent sulfoquinovosidase that acts on SQGro to form SQ”.

B1: AmSqgH (Alteromonas macleodii ATCC 27126) (protein)
chain: MSNAFCVNEPEWNDIKAADITEQPFLSDDKTLIVPTQYGELSLSISQFGLRIQSNVNAADDFGMLTQAPERLSLVLSGDQSHSTLAAGDYRLEVFAAPLHFKLYKNDVLVQQSATDGHFVRQHRLPPFAKTDKGWLLSLELSYDEAVYGLGEKWGKLDKRGQLIRSYNHDALGVNAEKSYKNTPYAWSPEGWNLFVHTPAPVTHGVGYALWSQRAYVCLVEDNVLDMFLFHQDSPAKCLQTYSELTGFAPTPPTWSLGVILSKAYYKDADELLAVAREVREKNMPCDVITLDGRAWQDTDTRFAFEWDPKRYADPQPVIDELKALGFKICVWEYPMISVKNPLYKKAADKGWLIKDKRTGEAYRYEWDLSPFGEVLTPLPDSGILDFTHPEAYEFWKTSHKPLFDLGIDMIKADFGEQLEDDNMLSYSGDSGNRLHNVYSMLYNRCVYEAADAYCKTGPFLFSRSAWTGSQRYPSQWGGDPQADWHGLAASIRGSLSWGMSGGPFFATDIGGFYKDTRDAELYVRWAQASVFSAHMRLHGIGPREPWSYGDAASNAVFEALKLRYKLIPYLKETAEKASQTGLPVQRAMALAFPEQPLSHGFEQQFMCGDDLLVVPCVVPGGKIKYYLPKGKWIRFGTEEVVQGEQYREEILALNDVAVFIQKGSRIVMGPDVQHTDMDMSNTTHWPA
In general, Km refers to the substrate concentration at which the rate is half of its maximum. The kcat is the number of substrate molecules converted per active site and unit of time at saturation. On to B1, for which, in “purified protein”, the Michaelis constant (Km) was determined as 13.0 ± 2.2 mM and the turnover number (kcat) was found to be 119 ± 19 s⁻¹.
